Test results: patent publication US20250243208A1, “BICYCLIC HETEROCYCLES AS MRGPRX2 ANTAGONISTS” (Incyte Corporation, priority 2024, published 2025)

Experiments:
MRGPRX2 [1] = target: T1, MRGPRX2 (Homo sapiens, UniProt Q96LB1); assay: MRGPRX2 β-Arrestin recruitment assay (PathHunter CHO-K1); assay type: cell-based; set-up: host or cells: PathHunter CHO-K1; settings: PathHunter CHO-K1 cells, agonist Cortistatin 14 0.25 μM
T1 sequence (Q96LB1 1-330): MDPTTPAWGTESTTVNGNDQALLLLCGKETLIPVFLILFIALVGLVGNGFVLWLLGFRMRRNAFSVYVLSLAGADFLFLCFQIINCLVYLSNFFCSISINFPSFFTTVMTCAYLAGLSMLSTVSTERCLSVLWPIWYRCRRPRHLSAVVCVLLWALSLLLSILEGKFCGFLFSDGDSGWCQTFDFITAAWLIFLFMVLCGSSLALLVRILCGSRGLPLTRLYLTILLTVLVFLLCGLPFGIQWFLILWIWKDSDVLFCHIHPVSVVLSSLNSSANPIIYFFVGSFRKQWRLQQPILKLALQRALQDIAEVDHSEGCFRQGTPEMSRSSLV
Text: Example C: MRGPRX2 β-Arrestin Assay
This assay measures compound inhibition of β-Arrestin recruitment, which is part of the G protein-independent pathway that results from the ligand-activated GPCR phosphorylation by specific GPCR kinases. The PathHunter CHO-K1 MRPGRX2 B-Arrestin Cell line stably expressing ProLink tagged MRGPRX2 and Enzyme Acceptor Tagged B-Arrestin was purchased from Eurofins DiscoverX, (Fremont, CA).
The cells were maintained in culture medium from the Europhins DiscoverX Cell Culture Kit-107 which includes FBS, hygromycin B and G418. For the assay, the cells were harvested and were resuspended with Cell Plating Reagent 2 (Eurofins DiscoverX). Cells were added 10000 cells in 25 μL/well to a 384-well black cell culture plate (Greiner VWR, Radnor, PA) which contained 125 nL/well of compound at a selected serially diluted concentration range or DMSO. The plate was incubated at 37° C. with 5% CO2 for 1 h. 2 μL/well of agonist Cortistatin 14 was diluted in Protein Dilution Buffer, (Eurofins DiscoverX) for a final concentration of 0.25 μM, was added and the plate was incubated at 37° C. with 5% CO2 for 90 min. 14 μL/well of Detection Reagent Mix (PathHunter Detection Kit, Eurofins DiscoverX) was added to the plates and further incubated for 1 h in the dark. Plates were read on the PHERAstar microplate reader (BMG Labtech Cary, NC) measuring luminescence 0.1 to 1 s per well. Data was normalized using DMSO only wells and wells with high concentration of reference antagonist as controls. Compound IC50 curves were globally fitted with 3- or 4-parameter Hill equation in a Genedata Screener (Genedata Basel, Switzerland).

MRGPRX2 [2] = target: T1, MRGPRX2; assay: MRGPRX2 IP1 HTRF assay; assay type: cell-based; set-up: host or cells: CHO-K1; settings: CHO-K1 cells, agonist Cortistatin 14 1 μM, IP1 accumulation
Text: Example B: MRGPRX2 IP1 HTRF Assay
This assay measures compound inhibition of myo-Inositol 1 phosphate (IP1) accumulation in CHO-K1 cells. Chinese hamster ovary (CHO-K1) cells stably expressing human MRGPRX2 were purchased from GenScript (Piscataway, NJ).
For the HTRF IP1 determination, an IP-One GqKit (Perkin Elmer Cisbio, Waltham, MA), which includes all reagents and buffers in this protocol, was used. The cells were maintained in culture medium (Ham's F-12K) containing 10% (v/v) FBS, and 200 μg/mL Zeocin. For the assay, the cells were harvested and resuspended in culture medium with 2% FBS and without Zeocin, then were passed through a 40 μm filter. Cells were added at 20000 cells in a 5 μL/well to a 384-well white small volume cell culture plate (Greiner VWR, Radnor, PA) which contained 50 nL/well of test compound serially diluted at a selected concentration range in DMSO. 5 μL/well of prepared 2× Stimulation Buffer2 was then added to plates and was incubated at 37° C. with 5% CO2 for 1 h. 5 μL/well of agonist Cortistatin 14 (Bio-TechneR&D Systems, Minneapolis, MN) in 1× Stimulation Buffer 2, for a 1 μM final concentration, was then added to plates and incubated at 37° C. with 5% CO2 for 1 h. 6 μL/well of 1:20 diluted Detection Reagent Mix (d2 and Cryptate) was added to the plates and incubated for 1 h in the dark. Plates were read on the PHERAstar microplate reader (BMG Labtech Cary, NC) to determine the HTRF ratio of the acceptor and donor emission signals. The IP1 concentrations were calculated from a standard curve following the IP-One GQ kit instructions. Wells with DMSO only and wells with high concentration of reference antagonist were used as controls for normalization. Compound IC50 curves were globally fitted with 3- or 4-parameter Hill equation in a Genedata Screener (Genedata Basel, Switzerland).

MRGPRX2 [3] = target: T1, MRGPRX2; assay: potency comparison of separated isomers (assay not stated); settings: compared with the other separated diastereomer/enantiomer

Row | Compound | IC50 (MRGPRX2 [1]) | IC50 (MRGPRX2 [2]) | relative potency of the separated isomer (MRGPRX2 [3])
1 | CC(CNc1cc(C(F)F)nc2cc(C(F)(F)F)nn12)(c1ccccc1)C1CN(S(N)(=O)=O)C1 (racemic) [Example 7, 3-(1-((5-(Difluoromethyl)-2-(trifluoromethyl)pyrazolo[1,5-a]pyrimidin-7-yl)amino)-2-phenylpropan-2-yl)azetidine-1-sulfonamide] | 0.0001 to 0.1 µM | 0.0001 to 0.1 µM | –
2 | CC(CNc1cc(C(F)F)nc2cc(C(F)(F)F)nn12)(c1ccccc1)C1CN(C(N)=O)C1 (racemic) [Example 8, 3-(1-((5-(Difluoromethyl)-2-(trifluoromethyl)pyrazolo[1,5-a]pyrimidin-7-yl)amino)-2-phenylpropan-2-yl)azetidine-1-carboxamide] | 0.0001 to 0.1 µM | 0.0001 to 0.1 µM | –
3 | CC(CNc1cc(C(F)(F)F)nc2cc(C(F)(F)F)nn12)(c1ccccc1)C1CN(c2n[nH]c(N)n2)C1 (racemic) [Example 9, N-(2-(1-(5-Amino-1H-1,2,4-triazol-3-yl)azetidin-3-yl)-2-phenylpropyl)-2,5-bis(trifluoromethyl)pyrazolo[1,5-a]pyrimidin-7-amine] | 0.0001 to 0.1 µM | 0.0001 to 0.1 µM | –
4 | CC(CNc1cc(C(F)(F)F)nc2cc(C(F)(F)F)nn12)(c1ccccc1)C1CN(C(N)=O)C1 (racemic) [Example 10, 3-(1-((2,5-Bis(trifluoromethyl)pyrazolo[1,5-a]pyrimidin-7-yl)amino)-2-phenylpropan-2-yl)azetidine-1-carboxamide] | 0.0001 to 0.1 µM | 0.0001 to 0.1 µM | –
5 | CC(CNc1cc(C(F)(F)F)nc2cc(C(F)(F)F)nn12)(c1ccccc1)C1CNC1 (racemic) [Example 11, N-(2-(Azetidin-3-yl)-2-phenylpropyl)-2,5-bis(trifluoromethyl)pyrazolo[1,5-a]pyrimidin-7-amine] | 0.0001 to 0.1 µM | 0.0001 to 0.1 µM | –
6 | C[C@](CNc1cc(C(F)(F)F)nc2cc(C(F)(F)F)nn12)(c1ccc(F)cc1)C1CN(C(N)=O)C1 (single isomer, unassigned) [Example 5, 3-(1-((2,5-Bis(trifluoromethyl)pyrazolo[1,5-a]pyrimidin-7-yl)amino)-2-(4-fluorophenyl)propan-2-yl)azetidine-1-carboxamide] | – | 0.0001 to 0.1 µM | –
7 | C[C@](CNc1cc(C(F)(F)F)nc2cc(C(F)(F)F)nn12)(c1ccc(F)cc1)C1CN(C(N)=O)C1 (single isomer, unassigned) [Example 6, 3-(1-((2,5-Bis(trifluoromethyl)pyrazolo[1,5-a]pyrimidin-7-yl)amino)-2-(4-fluorophenyl)propan-2-yl)azetidine-1-carboxamide] | 0.0001 to 0.1 µM | 0.0001 to 0.1 µM | –
8 | CC(CNc1cc(C(F)(F)F)nc2cc(C(F)(F)F)nn12)(c1ccc(F)cc1)C1CCN(C(=O)NCCO)C1 (single isomer, unassigned) [Example 16, 3-(1-((2,5-Bis(trifluoromethyl)pyrazolo[1,5-a]pyrimidin-7-yl)amino)-2-(4-fluorophenyl)propan-2-yl)-N-(2-hydroxyethyl)pyrrolidine-1-carboxamide] | 0.0001 to 0.1 µM | 0.0001 to 0.1 µM | more potent
9 | CC(CNc1cc(C(F)(F)F)nc2cc(C(F)(F)F)nn12)(c1ccc(F)cc1)C1CCN(CC(N)=O)C1 (single isomer, unassigned) [Example 17, 2-(3-(1-((2,5-Bis(trifluoromethyl)pyrazolo[1,5-a]pyrimidin-7-yl)amino)-2-(4-fluorophenyl)propan-2-yl)pyrrolidin-1-yl)acetamide] | 0.0001 to 0.1 µM | 0.0001 to 0.1 µM | more potent
10 | NC(=O)N1CCC(C(CO)(CNc2cc(C(F)(F)F)nc3cc(C(F)(F)F)nn23)c2ccc(F)cc2)C1 (single isomer, unassigned) [Example 18, 3-(1-((2,5-Bis(trifluoromethyl)pyrazolo[1,5-a]pyrimidin-7-yl)amino)-2-(4-fluorophenyl)-3-hydroxypropan-2-yl)pyrrolidine-1-carboxamide] | 0.0001 to 0.1 µM | 0.0001 to 0.1 µM | –
11 | NC(=O)N1CCC(C(CNc2cc(C(F)(F)F)nc3cc(C(F)(F)F)nn23)c2ccc(F)cc2)C1 (single isomer, unassigned) [Example 20, 3-(2-((2,5-Bis(trifluoromethyl)pyrazolo[1,5-a]pyrimidin-7-yl)amino)-1-(4-fluorophenyl)ethyl)pyrrolidine-1-carboxamide] | 0.0001 to 0.1 µM | – | more potent
12 | O=C1NC2(CCO1)CN(C(CNc1cc(C(F)(F)F)nc3cc(C(F)(F)F)nn13)c1ccc(F)cc1)C2 (single isomer, unassigned) [Example 25, 2-(2-((2,5-Bis(trifluoromethyl)pyrazolo[1,5-a]pyrimidin-7-yl)amino)-1-(4-fluorophenyl)ethyl)-7-oxa-2,5-diazaspiro[3.5]nonan-6-one] | 0.0001 to 0.1 µM | – | more potent
13 | [2H]C([2H])([2H])NC(=O)C1CN(C(CNc2cc(C(F)(F)F)nc3cc(C(F)(F)F)nn23)c2ccc(F)cc2)C1 (single isomer, unassigned) [Example 26, 1-(2-((2,5-Bis(trifluoromethyl)pyrazolo[1,5-a]pyrimidin-7-yl)amino)-1-(4-fluorophenyl)ethyl)-N-(methyl-d3)azetidine-3-carboxamide] | 0.0001 to 0.1 µM | – | more potent
14 | CC1(O)CN(C(CNc2cc(C(F)(F)F)nc3cc(C(F)(F)F)nn23)c2ccc(F)cc2)C1 (single isomer, unassigned) [Example 35, 1-(2-((2,5-Bis(trifluoromethyl)pyrazolo[1,5-a]pyrimidin-7-yl)amino)-1-(4-fluorophenyl)ethyl)-3-methylazetidin-3-ol] | 0.0001 to 0.1 µM | – | active
15 | O=C1CC2(CN1)CN(C(CNc1cc(C(F)(F)F)nc3cc(C(F)(F)F)nn13)c1ccc(F)cc1)C2 (single isomer, unassigned) [Example 36, 2-(2-((2,5-Bis(trifluoromethyl)pyrazolo[1,5-a]pyrimidin-7-yl)amino)-1-(4-fluorophenyl)ethyl)-2,6-diazaspiro[3.4]octan-7-one] | 0.0001 to 0.1 µM | – | active
16 | O=C1NCC2(CN(C(CNc3cc(C(F)(F)F)nc4cc(C(F)(F)F)nn34)c3ccc(F)cc3)C2)N1 (single isomer, unassigned) [Example 37, 2-(2-((2,5-Bis(trifluoromethyl)pyrazolo[1,5-a]pyrimidin-7-yl)amino)-1-(4-fluorophenyl)ethyl)-2,5,7-triazaspiro[3.4]octan-6-one] | 0.0001 to 0.1 µM | – | active
17 | OC1CC2CC1CN2C(CNc1cc(C(F)(F)F)nc2cc(C(F)(F)F)nn12)c1ccc(F)cc1 (stereo not shown) [Example 22, 2-(2-((2,5-Bis(trifluoromethyl)pyrazolo[1,5-a]pyrimidin-7-yl)amino)-1-(4-fluorophenyl)ethyl)-2-azabicyclo[2.2.1]heptan-5-ol] | 0.0001 to 0.1 µM | – | –
